Measurements as given in US9499550B2 (BRISTOL-MYERS SQUIBB COMPANY, priority 2012, dated 2016).
Read-outs that look alike come from different tables or passages of the source.

Experiments:
[1] = tested on: HCV genotype 1a (H77 strain) replicon in HUH-7 cells; assay: HCV replicon luciferase reporter assay, genotype 1a; format: cell-based; conditions: Hepatitis C virus, Huh-7, 72 h, HCV genotype 1a replicon luciferase assay, 3 days incubation
Description: (§1) Generation of HCV Replicon
(§2) An HCV replicon whole cell system was established as described by Lohmann V, Korner F, Koch J, Herian U, Theilmann L, Bartenschlager R., Science 285(5424):110-3 (1999) and modified to introduce a luciferase reporter, as first described by Krieger et al (Krieger N, Lohmann V, and Bartenschlager R, J. Virol. 75(10):4614-4624 (2001)). CDNA encoding a humanized form of the Renilla luciferase gene and a linker sequence fused directly to the 3′-end of the luciferase gene were introduced into the replicon construct using an Asc1 restriction site located in core, directly upstream of the neomycin marker gene. The adaptive mutation at position 1179 (serine to isoleucine) was also introduced (Blight K J, Kolykhalov, A A, Rice, C M, Science 290(5498):1972-1974). A stable cell line constitutively expressing this HCV replicon construct was generated by first linearizing plasmid DNAs with ScaI. RNA transcripts were synthesized in vitro using the T7 MegaScript transcription kit (Ambion, Austin, Tex.) according to manufacturer's directions. In vitro transcripts of the cDNA were transfected into the human hepatoma cell line, HUH-7. […] Resulting cell lines were characterized for positive and negative strand RNA production and protein production over time.
A stable HCV replicon luciferase reporter cell line representing the genotype 1a H77 strain (Yanagi M, Purcell R H, Emerson S U, et al. Transcripts from a single full-length cDNA clone of hepatitis C virus are infectious when directly transfected into the liver of a chimpanzee. Proc Natl Acad Sci USA 1997; 94(16):8738-8743) was generated as described previously for the genotype 1b(Con1) replicon luciferase cell line. The replicon construct was modified by introducing mutations were introduced into the genes encoding the NS3 helicase domain (proline replaced by leucine at position 1496) and NSSA (serine to isoleucine at position 2204) to improve replication in cell culture.
(§3) HCV Replicon Luciferase Reporter Assay
(§4) HCV replicon luciferase assays were developed to monitor the inhibitory effects of compounds described in the disclosure on HCV genotypes 1a and 1b viral replication. HUH-7 cells, constitutively expressing the HCV replicon, were grown in Dulbecco's Modified Eagle Media (DMEM) (Gibco-BRL) containing 10% Fetal calf serum (FCS) (Sigma) and 1 mg/mL G418 (Gibco-BRL). Compounds were serially diluted 3 folds in DMSO for a twenty-point titration and subsequently transferred to sterile 384-well tissue-culture treated plates (Corning cat #3571). The plates were then seeded with 50 μL of cells at a density of 3.0×10^3 cells/well in DMEM containing 4% FCS (final DMSO concentration at 0.5%). After 3 days incubation at 37° C., cells were analyzed for Renilla Luciferase activity using the EnduRen as substrate (Promega cat #E6485). The EnduRen substrate was diluted in DMEM and then added to the plates to a final concentration of 7.5 μM. The plates were incubated for 2 hrs at 37° C. and then read immediately for 30 seconds with Viewlux Imager (PerkinElmer) using a luminescence program. To assess cytotoxicity of compounds, CC50 values were generated by multiplexing the EnduRen-containing plates with Cell Titer-Blue (Promega, cat # G8082). Cell-Titer Blue (3 μL) was added to each well and incubated for 8 hrs at 37° C. The fluorescence signal from each well was read, with an excitation wavelength at 525/10 nm and an emission wavelength of 598/10 nm, using the Viewlux Imager.
(§5) The EC50 values for compounds were calculated by using a four-parameter logistic equation: y=A+((B−A)/(1+((C/x)^D))), where A and B denotes minimal and maximal % inhibition, respectively, C is the EC50, D is the hill slope and x represents compound concentration.

[2] = tested on: HCV genotype 1b (Con1) replicon in HUH-7 cells; assay: HCV replicon luciferase reporter assay, genotype 1b; format: cell-based; conditions: Hepatitis C virus, Huh-7, 72 h, HCV genotype 1b replicon luciferase assay, 3 days incubation
Description: as §1
as §2, with “time. […]” for “time.”
as §3, §4, §5

[3] = range class, read-out: LE_1a (EC50, range)
[4] = range class, read-out: LE_1b (EC50, range)
[5] = GETYPE1A, range class, read-out: LE_1a (EC50, range)
[6] = GETYPE1B, range class, read-out: LE_1b (EC50, range)

| SMILES | EC50 [1, 3] | EC50 [2, 4] | EC50 [1, 5] | EC50 [2, 6] | EC50 ([1]; read-out: LE_1a (EC50)) | EC50 ([2]; read-out: LE_1b (EC50)) |
| --- | --- | --- | --- | --- | --- | --- |
| COc1cnc(O[C@@H]2C[C@H]3C(=O)N[C@]4(C(=O)NS(=O)(=O)C5CC5)C[C@H]4/C=C\CC[C@H](C)C[C@@H](C)[C@H](NC(=O)OC(C)(C)C(F)(F)F)C(=O)N3C2)c2cccc(Cl)c12 [Compound 28, 1,1,1-trifluoro-2-methylpropan-2-yl((2R,6S,7R,9S,13aS,14aR,16aS,Z)-2-((5-chloro-4-methoxyisoquinolin-1-yl)oxy)-14a-((cyclopropylsulfonyl)carbamoyl)-7,9-dimethyl-5,16-dioxo-1,2,3,5,6,7,8,9,10,11,13a,14,14a,15,16,16a-hexadecahydrocyclopropa[e]pyrrolo[1,2-a][1,4]diazacyclopentadecin-6-yl)carbamate] | < 5.46 nM | < 5.46 nM |  |  |  |  |
| COc1cnc(O[C@@H]2C[C@H]3C(=O)N[C@]4(C(=O)NS(=O)(=O)C5(F)CC5)C[C@H]4/C=C\CC[C@@H](C)C[C@@H](C)[C@H](NC(=O)OC(C)(C)C(F)(F)F)C(=O)N3C2)c2cccc(Cl)c12 [Compound 30] |  |  | < 5.46 nM | < 5.46 nM |  |  |
| C[C@@H]1CC/C=C\[C@@H]2C[C@@]2(C(=O)NS(=O)(=O)C2CC2)NC(=O)[C@@H]2C[C@@H](Oc3ncc(OC4CC4)c4c(Cl)cccc34)CN2C(=O)[C@@H](NC(=O)OC(C)(C)C(F)(F)F)[C@H](C)C1 [Compound 32] |  |  | < 5.46 nM | < 5.46 nM |  |  |
| CC(C)n1nc(O[C@@H]2C[C@H]3C(=O)N[C@]4(C(=O)NS(=O)(=O)C5CC5)C[C@H]4/C=C\CC[C@H](C)C[C@@H](C)[C@H](NC(=O)OC(C)(C)C)C(=O)N3C2)c2ccccc2c1=O [Compound 1001, tert-butyl ((2R,6S,7R,9S,13aS,14aR,16aS,Z)-14a-((cyclopropylsulfonyl)carbamoyl)-2-((3-isopropyl-4-oxo-3,4-dihydrophthalazin-1-yl)oxy)-7,9-dimethyl-5,16-dioxo-1,2,3,5,6,7,8,9,10,11,13a,14,14a,15,16,16a-hexadecahydrocyclopropa[e]pyrrolo[1,2-a][1,4]diazacyclopentadecin-6-yl)carbamate] | > 87.4 nM | > 87.4 nM |  |  | ≥ 1000 nM | 449 nM |
| CC(C)n1nc(O[C@@H]2C[C@H]3C(=O)N[C@]4(C(=O)NS(=O)(=O)C5CC5)C[C@H]4/C=C\CC[C@@H](C)C[C@@H](C)[C@H](NC(=O)OC(C)(C)C)C(=O)N3C2)c2ccccc2c1=O [Compound 1002, tert-butyl ((2R,6S,7R,9R,13aS,14aR,16aS,Z)-14a-((cyclopropylsulfonyl)carbamoyl)-2-((3-isopropyl-4-oxo-3,4-dihydrophthalazin-1-yl)oxy)-7,9-dimethyl-5,16-dioxo-1,2,3,5,6,7,8,9,10,11,13a,14,14a,15,16,16a-hexadecahydrocyclopropa[e]pyrrolo[1,2-a][1,4]diazacyclopentadecin-6-yl)carbamate] | > 87.4 nM | 4.82 to 103 nM |  |  |  |  |
| CC(C)n1nc(O[C@@H]2C[C@H]3C(=O)N[C@]4(C(=O)NS(=O)(=O)C5(C)CC5)C[C@H]4/C=C\CC[C@H](C)C[C@@H](C)[C@H](NC(=O)OC(C)(C)C)C(=O)N3C2)c2ccccc2c1=O [Compound 1003, tert-butyl ((2R,6S,7R,9S,13aS,14aR,16aS,Z)-2-((3-isopropyl-4-oxo-3,4-dihydrophthalazin-1-yl)oxy)-7,9-dimethyl-14a-(((1-methylcyclopropyl)sulfonyl)carbamoyl)-5,16-dioxo-1,2,3,5,6,7,8,9,10,11,13a,14,14a,15,16,16a-hexadecahydrocyclopropa[e]pyrrolo[1,2-a][1,4]diazacyclopentadecin-6-yl)carbamate] | > 87.4 nM | > 87.4 nM |  |  |  |  |
